Patent US8629277B2, “Styrenyl 1,2,4-oxadiazole compounds” (Piramal Enterprises Limited, priority 2010, dated 2014)

What was measured:
Type in all cases: cell-based
Ba/F3 Bcr-Abl/Q252H = target: T1, Ba/F3 Bcr-Abl/Q252H (Homo sapiens, UniProt P00519, Q252H, cells depend on it); experiment: Cell proliferation and cytotoxicity CCK-8 assay; settings: mouse, 72 h
T1 construct: fused on or other part: P11274 (Breakpoint cluster region protein)

Y253 = experiment: Flow cytometric analysis of apoptosis (PI staining)
Protocol: (§1) Effect of the Compounds of Present Invention in Bcr-Abl Mutated Imatinib Mesylate-Resistant Cell Lines on Cell Cycle and Apoptosis Using Flow Cytometry.
(§2) The assay was carried out as in reference, FEBS Letters, 2007, 581, 7, 1329-1334. […] At the end of incubation, cells were harvested by centrifugation at 1000 rpm for 10 minutes, washed with phosphate buffered saline (PBS) and gradually resuspended in 70% ice-cold ethanol (to facilitate the permeablisation of stains). Cell suspension was stored for a minimum period of 4 h before staining with propidium iodide (PI). Fixed cells were stained with PI (80 μg/mL) in presence of RNase A (50 μg/mL), and read on Becton Dickinson FACS Calibur (USA) for cell cycle analysis.

E255V = experiment: as above
Protocol: as §1, §2

Ba/F3 = experiment: as above
Protocol: as §1, §2

T315I = experiment: as above
Protocol: as §1, §2

Ba/F3 Bcr-Abl/M244V = target: T2, Ba/F3 Bcr-Abl/M244V (Homo sapiens, UniProt P00519, M244V, cells depend on it); experiment: Cell proliferation and cytotoxicity CCK-8 assay; settings: mouse, 72 h
T2 construct: fused on or other part: P11274 (Breakpoint cluster region protein)

Ba/F3 Bcr-Abl/F317L = target: T3, Ba/F3 Bcr-Abl/F317L (Homo sapiens, UniProt P00519, F317L, cells depend on it); experiment: Cell proliferation and cytotoxicity CCK-8 assay; settings: mouse, 72 h
T3 construct: fused on or other part: P11274 (Breakpoint cluster region protein)

Ba/F3 Bcr-Abl/H396R = target: T4, Ba/F3 Bcr-Abl/H396R (Homo sapiens, UniProt P00519, H396R, cells depend on it); experiment: Cell proliferation and cytotoxicity CCK-8 assay; settings: mouse, 72 h
T4 construct: fused on or other part: P11274 (Breakpoint cluster region protein)

Ba/F3 Bcr-Abl/Y253F = target: T5, Ba/F3 Bcr-Abl/Y253F (Homo sapiens, UniProt P00519, Y253F, cells depend on it); experiment: Cell proliferation and cytotoxicity CCK-8 assay; settings: mouse, 72 h
T5 construct: fused on or other part: P11274 (Breakpoint cluster region protein)

Ba/F3 Bcr-Abl/H396P = target: T6, Ba/F3 Bcr-Abl/H396P (Homo sapiens, UniProt P00519, H396P, cells depend on it); experiment: Cell proliferation and cytotoxicity CCK-8 assay; settings: mouse, 72 h
T6 construct: fused on or other part: P11274 (Breakpoint cluster region protein)

Ba/F3 Bcr-Abl/M351T = target: T7, Ba/F3 Bcr-Abl/M351T (Homo sapiens, UniProt P00519, M351T, cells depend on it); experiment: Cell proliferation and cytotoxicity CCK-8 assay; settings: mouse, 72 h
T7 construct: fused on or other part: P11274 (Breakpoint cluster region protein)

Ba/F3 Bcr-Abl/WT = target: T8, Ba/F3 Bcr-Abl/WT (Homo sapiens, UniProt P00519); experiment: Cell proliferation and cytotoxicity CCK-8 assay; settings: imatinib sensitive cell line; CCK-8, 72 h; read-out: Inhibitory concentrations (IC50) Ba/F3 Bcr-Abl/WT
T8 construct: fused on or other part: P11274 (Breakpoint cluster region protein)
Excerpt: Cell Proliferation and Cytotoxicity CCK-8 Assay:
Cell Counting Kit-8 (CCK-8) assay is a sensitive colorimetric assay for the determination of number of viable cells in cell proliferation and cytotoxicity assays. Cell Counting Kit-8 (CCK-8) utilizes Dojindo's highly water-soluble tetrazolium salt. The amount of the formazan dye generated by dehydrogenases in cells is directly proportional to the number of living cells.
The cell lines described in Table 1 were used to test the antiproliferative activity of the compounds of the present invention.
Cells were seeded at a density of ˜5×10^3 per well (0.09 mL) in a transparent 96-well tissue culture plate (NUNC, USA) and allowed to incubate at 37° C., 5% CO2 incubator for 2-6 h. Different concentrations of compounds of the present invention were added to the wells of the culture plate in triplicate. […] Plates were further incubated in an incubator at 37° C. in presence of 5% CO2 for 72 h. 10 μL of the CCK-8 solution was added to each well and plate was incubated for 1-4 h in the incubator. The absorbance was measured at 450 nm using a microplate reader. The percent inhibition and IC50 were calculated in comparison with control values.

Ba/F3 Bcr-Abl/E255V = target: T9, Ba/F3 Bcr-Abl/E255V (Homo sapiens, UniProt P00519, E255V, cells depend on it); experiment: Cell proliferation and cytotoxicity CCK-8 assay; settings: mouse, 72 h
T9 construct: fused on or other part: P11274 (Breakpoint cluster region protein)

SMILES	GI50 (Ba/F3 Bcr-Abl/Q252H)	% Apoptosis by Flow Cytometry Analysis (Y253; 3X IC50, 96 h time point)	% Apoptosis by Flow Cytometry Analysis (Y253; 5X IC50, 48 h time point)	% Apoptosis by Flow Cytometry Analysis (Y253; 5X IC50, 96 h time point)	% Apoptosis by Flow Cytometry Analysis (E255V; 3X IC50, 96 h time point)	% Apoptosis by Flow Cytometry Analysis (E255V; 5X IC50, 48 h time point)	% Apoptosis by Flow Cytometry Analysis (E255V; 5X IC50, 96 h time point)	% Apoptosis by Flow Cytometry Analysis (Ba/F3; 3X IC50, 96 h time point)	% Apoptosis by Flow Cytometry Analysis (Ba/F3; 5X IC50, 48 h time point)	% Apoptosis by Flow Cytometry Analysis (Ba/F3; 5X IC50, 96 h time point)	% Apoptosis by Flow Cytometry Analysis (T315I; 3X IC50, 96 h time point)	% Apoptosis by Flow Cytometry Analysis (T315I; 5X IC50, 48 h time point)	% Apoptosis by Flow Cytometry Analysis (T315I; 5X IC50, 96 h time point)	GI50 (Ba/F3 Bcr-Abl/M244V)	GI50 (Ba/F3 Bcr-Abl/F317L)	GI50 (Ba/F3 Bcr-Abl/H396R)	GI50 (Ba/F3 Bcr-Abl/Y253F)	GI50 (Ba/F3 Bcr-Abl/H396P)	GI50 (Ba/F3 Bcr-Abl/M351T)	GI50 (Ba/F3 Bcr-Abl/WT)	other results
Oc1ccc(C=Cc2nc(Cc3ccccc3)no2)cc1O [Compound of Example 4, 4-[2-(3-Benzyl-[1,2,4]oxadiazol-5-yl)-vinyl]-benzene-1,2-diol]	3.65 ± 0.65 µM	70.6%	89%	96.6%	94.4%	93%	97.4%	97%	46%	93%	80.58%	98.2%	63.9%	2.3 µM	2.85 ± 0.35 µM	3.05 ± 0.07 µM	2.1 ± 0.14 µM	2.6 ± 1.2 µM	7.5 ± 0.7 µM	< 10 µM	GI50 (Ba/F3 Bcr-Abl/E255V): 4 ± 1.4 µM
CCCc1noc(C=Cc2ccc(O)c(O)c2)n1 [Compound of Example 3, 4-[2-(3-Propyl-[1,2,4]oxadiazol-5-yl)-vinyl]-benzene-1,2-diol]	2.6 ± 0.84 µM	62%	87.5%	94.9%	78%	91.2%	90.9%	95%	46%	84%	78%	97.6%	85%	2.1 µM	1.95 ± 0.21 µM	2.25 ± 0.77 µM	1.5 ± 0.56 µM	2 ± 0.98 µM	5.7 ± 1.7 µM	< 10 µM	GI50 (Ba/F3 Bcr-Abl/E255V): 2.1 ± 0.75 µM
